From patent US12029796B2, “Fluorescent probes for silver ION detection” (THE HONG KONG UNIVERSITY OF SCIENCE AND TECHNOLOGY, priority 2017, dated 2024)
Where two headings read alike, the source gives them in different places.

How the values were obtained:
[1] = Fluorescent quantum yield in solid state and in solution; format: physicochemical; conditions: solid state
Experimental: (§1) The present compounds are strongly emissive in the solid state with good fluorescent quantum yields. The compounds are weakly emissive or non-emissive when dissolved in aqueous solutions. […] In contrast, when these compounds are dissolved, the solutions only emit faint light (Qy<1%). The compounds dissolve well in alcohols. The compounds can be modestly dissolved (for TPE-4TTZ, up 100 μM in DI-water) in the aqueous phase. Furthermore by the addition of NaOH solutions, the formed salts dissolve well in the aqueous phase (for TPE-4TTZ, up to 1 M in water).

[2] = Fluorescence turn-on sensing and titration of silver ions; conditions: for ratio [Ag^+]:[probe] at which PL intensity is saturated / maximum: probe 5 μM; for LOD (limit of detection) of silver ions / Linear Range of silver ion detection: probe 5 μM in DI-water, excitation 345 nm
Source text: The turn-on fluorescence response was instant. The detection of silver ions was highly sensitive and sharp intensity changes could be detected with the naked eye. DLS (Dynamic light scattering) measurement confirmed the formation of nanoparticles. […] This is likely due to the reduction of silver-tetrazole complexes by the strong electron-beam during TEM studies. These emissive silver-compound solid complexes are hardly soluble in a range of solvents, including DMSO, methanol, and water. NMR analysis of these complexes is not possible. The complexes are also resistant to acid/base treatment, or heating by a heat-gun.
In fluorescence spectroscopy, solutions containing silver ions behaved quite differently from solutions without silver ions in terms of intensity, with the ratio of intensity at maximum peak at 504 nm exceeding 400 times (FIGS. 3A-3D). […] By plotting the intensity of maximum intensive peaks against the ratio of ion concentrations, it was expected that the working curve for the quantitative detection of silver ions could be established. […] Meanwhile, the detection limit (LOD) of silver ions is estimated to be 40 nM (S/N=3 and n=11). With a further increase of [Ag^+], the intensity reaches a plateau.
Tetrazole-tagged AIE luminogen TPE-4TTZ (5 μM) undergoes a fluorescence turn-on response towards a solution of silver ions. The solutions can include organic solutions, aqueous solutions including natural water, wastes and/or biological buffer solutions. PL spectra were recorded on a Perkin-Elmer LS 55 spectrofluorometer.
The solutions included organic solutions, aqueous solutions including natural water, wastes and/or biological buffer solutions. For the same probes, the calibration curve varied a little in different solutions. UV spectra were measured on a Biochrom Libra S80PC double beams spectrometer. PL spectra were recorded on a Perkin-Elmer LS 55 spectrofluorometer.

[3] = Solubility in the aqueous phase; format: physicochemical
Experimental: as §1

[4] = Selectivity: fluorescence response to mercury ions
Source text: (§2) As selectivity is an important parameter for sensing technique, responses of these probes to other metal ions were examined. […] Mercury is reported to coordinate with the tetrazole group.
The Ag^+/Hg^2+ coordination-induced fluorescence can be pH-sensitive. For example, with respect to TPE-4TTZ, a series of tests were done in phosphate buffer solutions at different pH varying from 4 to 12. At pH lower than 4, the tetrazole moiety (pKa˜4-5) was largely in the protonated form and sparingly soluble in solution and, thus, aggregated. The aggregation elicited fluorescence with a different color from that of the silver complexes. Therefore, the turn-on detection is only possible in solutions with pH>4. […] Furthermore regarding the mercury detection, the FL response was significant only at the pH window (4˜7); when pH>8, the fluorescence turn-on was not observed anymore. […]
With reference to FIG. 7, tetrazole-tagged AIE luminogen TPE-4TTZ (10 μM) underwent a fluorescence turn-on response towards a solution of silver ions in the presence of other metal ions in phosphate aqueous solution (10 mM, pH 7.4). PL spectra were recorded on a Perkin-Elmer LS 55 spectrofluorometer. Tetrazole-tagged AIE luminogen TPE-4TTZ (10 μM) underwent a fluorescence turn-on response towards a solution of silver ions in the presence of other silver-binding molecules in phosphate aqueous solution (10 mM, pH 7.4). […]

[5] = Selectivity: fluorescence response to other metal ions
Experimental: as §2
With reference to FIG. 7, tetrazole-tagged AIE luminogen TPE-4TTZ (10 μM) underwent a fluorescence turn-on response towards a solution of silver ions in the presence of other metal ions in phosphate aqueous solution (10 mM, pH 7.4). PL spectra were recorded on a Perkin-Elmer LS 55 spectrofluorometer. Tetrazole-tagged AIE luminogen TPE-4TTZ (10 μM) underwent a fluorescence turn-on response towards a solution of silver ions in the presence of other silver-binding molecules in phosphate aqueous solution (10 mM, pH 7.4). In each example, the silver-binding molecule was added prior to the addition of the probes from a stock solution. The stock solution of the probe is 1 mM in ethanol. PL spectra were recorded on a Perkin-Elmer LS 55 spectrofluorometer.

[6] = pH dependence of Ag^+ induced fluorescence in phosphate buffer; conditions: phosphate buffer solutions
Source text: The Ag^+/Hg^2+ coordination-induced fluorescence can be pH-sensitive. For example, with respect to TPE-4TTZ, a series of tests were done in phosphate buffer solutions at different pH varying from 4 to 12. At pH lower than 4, the tetrazole moiety (pKa˜4-5) was largely in the protonated form and sparingly soluble in solution and, thus, aggregated. The aggregation elicited fluorescence with a different color from that of the silver complexes. Therefore, the turn-on detection is only possible in solutions with pH>4. When pH is from 5˜6, PL response is significant enough for a high resolution detection of silver ions. […] Furthermore regarding the mercury detection, the FL response was significant only at the pH window (4˜7); when pH>8, the fluorescence turn-on was not observed anymore. Thus, TPE-4TTZ is only sensitive to silver ions in basic solutions. Similar observations were made for the other tetrazole-tagged TPEs.

[7] = Interference of silver-binding reagents with silver sensing; conditions: TPE-4TTZ 5 μM, anions 100 equiv.
Experimental: Detection can be based on selective coordination involving electrostatic interactions. Tests were conducted to determine whether silver binding moieties (e.g., anions) might be another kind of interfering factor in the mixture. […] After a short while of shaking, the probe (10 eq.) was added. Each solution was gently mixed and then checked in a PL machine. Compared with the control group, the interfering reagents including amino acids and DNA/RNA bases were only weakly interfering with the silver-tetrazole sensing process. In other words, the tetrazole anions can snatch silver ions from these ligands and elicit a fluorescence turn-on. There were exceptions, in particular for strong silver-interacting structures. Cysteine, the sulfur-containing amino acid, blocked sensing by the strong S—Ag interaction. Similar results were seen from SCN^− and S2O3^2-, due to their stronger binding affinity towards Ag^+ than the tetrazole anion (CN4^−). In addition, ammonium solution blocked sensing by reducing Ag^+ into metallic silver.
With reference to FIG. […] PL spectra were recorded on a Perkin-Elmer LS 55 spectrofluorometer. […] In each example, the silver-binding molecule was added prior to the addition of the probes from a stock solution. The stock solution of the probe is 1 mM in ethanol. PL spectra were recorded on a Perkin-Elmer LS 55 spectrofluorometer.

[8] = cited from earlier work
[9] = phosphate aqueous solution 10 mM, pH 7.4

Row | SMILES | fluorescent quantum yield (Qy) [1] | ratio [Ag^+]:[probe] at which PL intensity is saturated / maximum [2] | LOD (limit of detection) of silver ions [2] | Linear Range of silver ion detection [2] | solubility ([3]; deionised water, DI-water, read-out: solubility in the aqueous phase) | solubility ([3]; water with added NaOH solution, aqueous buffer, water, after addition of NaOH solution, read-out: solubility of the formed salt in the aqueous phase) | fluorescence response on addition of silver ions ([2]; TPE-4TTZ 5 μM, silver ions 500 μM, UV 350 nm) | PL response to mercury ions [4, 9] | pH window with significant FL response to mercury ([4]; phosphate buffer solutions, pH 4 to 12) | PL response to Mg^2+, Mn^2+, Zn^2+, Al^3+ etc. [5, 9] | effect of Fe^2+, Fe^3+, Co^2+ and Cu^2+ on fluorescence ([5]; same conditions) | pH at which maximum PL response to silver is relatively stable [6] | pH at which turn-on detection of silver is possible ([6]; pH 4 to 12) | fluorescence on mixing with different anions without Ag^+ [7] | pKa of tetrazole moiety [8]
1 | c1ccc(C(=C(c2ccccc2)c2ccc(-c3nnn[nH]3)cc2)c2ccccc2)cc1 [TPE-1TTZ] | 39.6% | 0.6 | 1.5 nM | 0.1~3 μM | – | – | – | – | – | – | – | – | – | – | –
2 | c1ccc(C(=C(c2ccc(-c3nnn[nH]3)cc2)c2ccc(-c3nnn[nH]3)cc2)c2ccccc2)cc1 [TPE-2TTZ] | 36.2% | 2.6 | 3.0 nM | 0.2~10 μM | – | – | – | – | – | – | – | – | – | – | –
3 | c1cc(-c2nnn[nH]2)ccc1C(=C(c1ccc(-c2nnn[nH]2)cc1)c1ccc(-c2nnn[nH]2)cc1)c1ccc(-c2nnn[nH]2)cc1 [TPE-4TTZ] | 76.8% | ~4 | 2.3 nM | 0.04~15 μM | ≤ 0.1 mM | ≤ 1000 mM | highly emissive | significant enhancement of PL intensity | 4˜7 | hardly increased the PL intensity | quench the weak fluorescence | > 6 | > 4 | did not generate strong fluorescence | 4-5
